In article PMC5732773, “Metabolism, pharmacokinetics, and bioavailability of ZB716, a Steroidal Selective Estrogen Receptor Downregulator (SERD)” (Oncotarget, 2017):
Like-named read-outs stand apart in the source and are kept apart here.

Experiments:
[1] = system: UGT1A1, -1A3, -1A4, and -1A8; details: predominant site 3-hydroxyl; cited from earlier work
[2] = design: method as in PMID 12490735; details: second line therapy in the metastatic setting; cited from earlier work
[3] = ZB716 and metabolites in rat urine after oral dosing; details: for share in urine accounted for in urinary excretion 72 hours after oral dosage: oral ZB716, after 72 h
Text: Urine samples were subjected to the same HPLC-MS/MS analysis to identify ZB716 and any possible metabolites over a time course post oral administration. […] Again, quantitation was only possible with ZB716 and fulvestrant for which standard calibration curves were established.
(§1) Female Sprague-Dawley rats, weighing between 350 and 400 g (Charles River Laboratories, Portage, MI), were used for this study on ZB716. Oral gavages containing ZB716 were formulated in 5% dimethyl sulfoxide (DMSO), 40% polyethylene glycol 400, and 55% saline. Rats were housed in metabolic cages for collection of urine and feces samples after oral administration of ZB716 at a dose of 5 or 10 mg/kg. […] Urine and feces were collected for the durations of 0-1h, 1-3h, 3-6h, 6-8h, 8-24h, 24-48h, 48-72h, 72-96h, and 96-120 h after drug administration.
Urine samples were thawed at room temperature and vortaxed. 200 μL of the sample was transferred to a 1.5 mL Eppendorf microcentrifuge tube followed by adding 10 μL of the 0.5 ng/μL trans-tamoxifen-13C2,15N in methanol solution and 200 μL methanol. After Vortaxing and centrifuging, the sample was injected into the UHPLC-Q-Exactive instrument for analysis.
(§2) The Q-Exactive mass spectrometer was coupled to a UHPLC ultimate 3000 (Dionex) using a C-18 column (1.8 μm, 2.1 mm x 50 mm). The gradient started from 30% mobile phase B (acetonitrile with 0.05% formic acid) for 1 min, increased to 100% B in 4.5 min, held for 5 min, then decreased back to 30% B and held for 5 min. Mobile phase A was water with 0.05% formic acid. The flow rate was controlled at 0.3 mL/min. PRM mode was used to obtain the fragment patterns for metabolites with the setting of MS2 resolution of 17500, AGC target of 1e5, maximum IJ of 100 ms, NCE setting of 35. The heated ESI probe setting was set as sheath gas at 30 psi, auxiliary gas at 8 psi, spray voltage at 2500V, capillary temperature at 280°C, S-lens RF level at 50, and auxiliary gas heater temperature at 300°C.
(§3) Concentrated stock solutions of ZB716 and fulvestrant were prepared at 1 mM in methanol. The stock solution of the internal standard (trans-tamoxifen-13C2,15N) was prepared at 1000 ng/μL in methanol. The above stock solutions were kept at -20°C until use. The working solutions of ZB716 and fulvestrant were prepared at 100 μM in methanol. The working solution of the internal standard trans-tamoxifen-13C2, 15N was prepared at 5 ng/μL and 0.5 ng/ μL in methanol, respectively. Working solutions at various concentrations were prepared by diluting their corresponding stock solution with methanol. Calibration standards quality control solutions were prepared over a range of five orders of magnitude.

[4] = ZB716 and metabolites in rat feces after oral dosing; details: for share measured in feces after 72 hours: oral ZB716, after 72 h
Experimental: as §1
The internal standard of trans-tamoxifen-13C2,15N (0.5 ng/μL in methanol) was added to the feces samples at 10 ng/g feces based on the weight of the feces collected. Feces samples were homogenized with a Power Gen 125 homogenizer (Fisher Scientific) in the mixture of chloroform/methanol (2:1, v:v) and stored at -20 °C overnight. After sonicating for 30 min, the samples were centrifuged with a Heraeus Megafuge16R centrifuge at 3000 RPM. The supernatant was dried with nitrogen gas at room temperature and resuspended with corresponding amount of methanol (200 μL methanol/g feces) for injection on the UHPLC-Q-Exactive instrument.
as §2
Concentrated stock solutions of ZB716 and fulvestrant were prepared at 1 mM in methanol. The stock solution of the internal standard (trans-tamoxifen-13C2,15N) was prepared at 1000 ng/μL in methanol.

[5] = Sulfation in rat liver cytosol with PAPS
Experimental: Sulfate conjugation is enabled by sulfotransferases in the presence of the cofactor 3'-phosphoadenosine-5'-phosphosulfate (PAPS).
The pre-incubation solution was prepared by adding 13.5 μL 1 M pH=7.5 Tris-HCl buffer, 247.5 μL water, 6 μL 1 mM 3'-Phosphoadenosine-5'-phosphosulfate (PAPS) from R&D Systems, 30 μL (10 mg/mL) cytosolic protein from Corning Gentest into a 1.5 mL microcentrifuge. The mixtures were incubated at 37°C for 5 min in an incubator. Then 3 μL of 10 mM ZB716 was added, mixed, and incubated at 37°C for 60 min in the incubator. After incubation, 300 μL MeOH was added to terminate the reaction. The final mixture was then -centrifuged at 10,000×g for 4 min at 4 °C. The supernatant was analyzed by the UHPLC-Q-Exactive instrument.
The Q-Exactive mass spectrometer was coupled to a UHPLC ultimate 3000 (Dionex) using a C-18 column (1.8 μm, 2.1 mm x 50 mm). The gradient started from 30% mobile phase B (acetonitrile with 0.05% formic acid) for 1 min, increased to 100% B in 4.5 min, held for 5 min, then decreased back to 30% B and held for 5 min. Mobile phase A was water with 0.05% formic acid. The flow rate was controlled at 0.3 mL/min. PRM mode was used to obtain the fragment patterns for metabolites with the setting of MS2 resolution of 17500, AGC target of 1e5, maximum IJ of 100 ms, NCE setting of 35. […]

[6] = Oxidative metabolism of ZB716 in rat liver microsomes with NADPH; details: ZB716 with rat liver microsome and NADPH, 1 hour
Experimental: By incubating ZB716 with rat liver microsome in the presence of NADPH for 1 hour, the cytochrome P450 enzymes in the microsomes were allowed to oxidize ZB716 under aerobic conditions.
NADPH solution A contains NADP+ and Glucose 6-phosphate. NADPH solution B contains Glucose-6-phosphate dehydrogenase, which is necessary for NADPH regeneration. The pre-incubation solution was prepared by adding 30 μL of potassium phosphate buffer (pH 7.4; 10x), 241.5 μL water, 15μL of NADPH solution A, 3 μL of NADPH solution B, and 7.5 μL rat liver microsomes from Corning Gentest into a 1.5 mL microcentrifuge tube. The mixtures were incubated at 37°C for 5 min in an incubator. Then 3 μL of 10 mM ZB716 was added, mixed, and incubated at 37°C for 60 min in the incubator. After incubation, 300 μL MeOH was added to terminate the reaction. The final mixture was then centrifuged at 10,000×g for 4 min at 4°C. The supernatant was analyzed by UHPLC-HRMS (Thermo Q-Exactive).
The Q-Exactive mass spectrometer was coupled to a UHPLC ultimate 3000 (Dionex) using a C-18 column (1.8 μm, 2.1 mm x 50 mm). The gradient started from 30% mobile phase B (acetonitrile with 0.05% formic acid) for 1 min, increased to 100% B in 4.5 min, held for 5 min, then decreased back to 30% B and held for 5 min. Mobile phase A was water with 0.05% formic acid. The flow rate was controlled at 0.3 mL/min. […]

[7] = Glucuronidation in liver microsomes with UGT reaction mix (UDPGA); details: fulvestrant incubated with liver microsomes and UDPGA
Experimental: The pre-incubation solution was prepared by adding 205.5 μL water, 24 μL of UGT Reaction Mix solution A, 60μL of UGT Reaction Mix solution B, 7.5 μL rat liver microsomes from Corning Gentest into a 1.5 mL microcentrifuge. The mixtures were incubated at 37°C for 5 min in an incubator. Then 3 μL of 10mM ZB716 was added, mixed, and incubated at 37°C for 60 min in the incubator. After incubation, 300 μL MeOH was added to terminate the reaction. The final mixture was then centrifuged at 10,000× g for 4 min at 4 °C. The supernatant was analyzed by the UHPLC-Q-Exactive instrument.
as §2

[8] = design: method as in PMID 27529700, PMID 29467940; details: cited from earlier work
[9] = Metabolism and pharmacokinetics of ZB716 in rat plasma after oral dosing
Experimental: The same PRM approach was used to identify the metabolites of ZB716 in rat plasma collected at various time points after a single oral dose of 10 mg/kg. […] The pharmacokinetics parameters were calculated using a noncompartment extravascular model (Table 3).
Female Sprague-Dawley rats, weighing between 350 and 400 g (Charles River Laboratories, Portage, MI), were used for this study on ZB716. Oral gavages containing ZB716 were formulated in 5% dimethyl sulfoxide (DMSO), 40% polyethylene glycol 400, and 55% saline. Rats were housed in metabolic cages for collection of urine and feces samples after oral administration of ZB716 at a dose of 5 or 10 mg/kg. […] Urine and feces were collected for the durations of 0-1h, 1-3h, 3-6h, 6-8h, 8-24h, 24-48h, 48-72h, 72-96h, and 96-120 h after drug administration. Blood samples were collected from the lateral tail vein of the rats at 5 min, 15 min, 30 min, 1 h, 3 h, 6 h, 8 h, 24 h, and 48 h time points after drug administration. Rat blood was collected with a capillary into 1.5 mL microcentrifuge tubes containing 0.01 mL of 10 % EDTA anticoagulant. Plasma was then separated from cell pellets by centrifugation in a refrigerated centrifuge at 4 °C and transferred to a separate tube. Plasma samples were frozen at -80 °C until analysis.
Plasma samples (100 μL) were extracted using a modified Folch method for lipid extraction. Internal standard (10 μL 0.5 ng/μL trans-tamoxifen-13C2,15N in methanol), methanol (0.5 mL) and chloroform (1 mL) were added to each plasma sample. The mixtures were stored at −20 °C overnight. Samples were sonicated for 10 min and then centrifuged with a Thermo Scientific Heraeus Megafuge16 centrifuge. The top liquid layer was transferred to another test tube. The bottom residual layer was washed with 0.5 mL of chloroform/methanol (2:1), centrifuged, and the top layer was transferred and combined with the previous top layer. The mixture was dried out with nitrogen at room-temperature and re-suspended in 100 μL of HPLC grade methanol for injection.
as §2, §3

[10] = female, Sprague-Dawley, rat, plasma, po, 10 mg/kg

For CC12CCC3c4ccc(O)cc4CC(CCCCCCCCC[S+]([O-])CCCC(F)(F)C(F)(F)F)C3C1CCC2OC1OC(C(=O)O)C(O)C(O)C1O (stereo not drawn) [FU-17-glucuronide], the “share of fulvestrant glucuronidation products” value [1] is given as 5-10%.

For C[C@]12CC[C@@H]3c4ccc(O)cc4C[C@@H](CCCCCCCCC[S+]([O-])CCCC(F)(F)C(F)(F)F)[C@H]3[C@@H]1CC[C@@H]2O (stereo partly drawn) [Fulvestrant, reference compound], the clinical response rate [2] is listed as “below 20%”, the “detected in rat urine” value ([3]; rat urine after oral administration of ZB716, + detected, - not detected) is listed as “detected” and the “share in urine accounted for in urinary excretion 72 hours after oral dosage” value ([3]; rat) is listed as “less than 1%”. For the same compound, the “share of all fulvestrant found in urine excreted in the first 48 hours” value ([3]; rat, oral ZB716, metabolite fulvestrant, first 48 h) was 97.6%, the “detected in rat feces” value ([4]; rat feces after single oral dose of ZB716, + detected, - not detected) was “detected” and the “share measured in feces after 72 hours” value ([4]; rat) was “Less than 1%”. For the same compound, the “fulvestrant excreted in feces before 72 h” value ([4]; rat, oral ZB716, metabolite fulvestrant, before 72 h) was 69.2%, the site of sulfation ([5]; fulvestrant incubated with rat liver cytosol) was “predominantly at 3-position” and the “oxidative metabolite of ZB716 identified in incubation mixture” value [6] was “identified”. The site of glucuronidation [7] was “primarily at 3-OH”, the peak plasma concentration ([8]; animals, similar dosage via s.c. injection) was 20 ng/mL and the “detected in rat plasma” value ([9]; rat plasma after single oral dose of ZB716 10 mg/kg, + detected, - not detected) was “identified”.

For C[C@]12CC[C@@H]3c4ccc(B(O)O)cc4C[C@@H](CCCCCCCCC[S+]([O-])CCCC(F)(F)C(F)(F)F)[C@H]3[C@@H]1CC[C@@H]2O (stereo partly drawn) [ZB716], the “share in urine accounted for in urinary excretion 72 hours after oral dosage” value ([3]; rat) was “less than 1%”, the “share of ZB716 in urine excreted between 24 h to 72 h” value ([3]; rat, oral, 24-72 h) was 34.4% and the “share of ZB716 in urine excreted before 24 h” value ([3]; rat, oral, before 24 h) was “about 63.7%”. The “share measured in feces after 72 hours” value ([4]; rat) was “Less than 1%”, the “share of total ZB716 present in feces excreted in 24 hours” value ([4]; rat, oral, 0-24 h) was 80.7% and the “share of ZB716 in feces excreted between 24 h to 72 h” value ([4]; rat, oral, 24-72 h) was 10.2%. The “number of sulfate conjugation products observed” value ([5]; ZB716 with rat liver cytosol and PAPS) was “three”, the “number of direct or indirect oxidative metabolites identified” value [6] was “eight” and the peak plasma concentration ([8]; mice and rats, oral administration at 10 mg/kg) was over 100 ng/mL. The AUC(0-t) [9, 10] was 1.3 µg·h/mL, the MRT inf [9, 10] was 18.4 h and the Tmax [9, 10] was 2 h. For the same compound, the concentration at 1 h [9, 10] was 0.13 µg/mL, the concentration at 4 h [9, 10] was 0.0871 µg/mL and the concentration at 8 h [9, 10] was 0.0264 µg/mL. The concentration at 48 h [9, 10] was 0.00691 µg/mL, the k el [9, 10] was 1.11e-05 s⁻¹ and the “share of ZB716 metabolized to fulvestrant” value ([9]; in vivo, observed in mice (ref 27-28) and again in rats in this study) was 10-30%. The “AUC 0-inf_obs” value ([9]; rat, oral 10 mg/kg) was 1.45182 µg·h/mL, the Cmax ([9]; rat, oral 10 mg/kg) was 0.15812 µg/mL and the “Vz/Fobs (apparent volume of distribution during terminal phase)” value ([9]; rat, oral 10 mg/kg) was 13.97 (mg/kg)/(ng/mL). For the same compound, the t1/2 ([9]; rat, oral 10 mg/kg, noncompartment extravascular model) was 17.03 h and the “loss of plasma concentration from 2 h to 4 h” value ([9]; rat, single oral dose 10 mg/kg, within 2 hours after peak) was 44.9%.
